Results published in patent publication US20250360111A1, “COMPOSITIONS OF AGPAT4 INHIBITORS AND METHODS OF USING THEREOF TO TREAT CANCER” (The University of Hong Kong, priority 2024, published 2025).

Legend:
[1] = target: T1, Purified human AGPAT4 protein (Homo sapiens, UniProt Q9NRZ5); test: In vitro binding to AGPAT4 by gel-based ABPP (competition with IA-rhodamine); details: loss of IA-rhodamine fluorescence
T1 construct: The open reading frame (ORF) encoding the mRNA of AGPAT4 was cloned into pGEX-4T1; made in house; host or cells: Escherichia coli BL21
T1 sequence (Q9NRZ5 1-378): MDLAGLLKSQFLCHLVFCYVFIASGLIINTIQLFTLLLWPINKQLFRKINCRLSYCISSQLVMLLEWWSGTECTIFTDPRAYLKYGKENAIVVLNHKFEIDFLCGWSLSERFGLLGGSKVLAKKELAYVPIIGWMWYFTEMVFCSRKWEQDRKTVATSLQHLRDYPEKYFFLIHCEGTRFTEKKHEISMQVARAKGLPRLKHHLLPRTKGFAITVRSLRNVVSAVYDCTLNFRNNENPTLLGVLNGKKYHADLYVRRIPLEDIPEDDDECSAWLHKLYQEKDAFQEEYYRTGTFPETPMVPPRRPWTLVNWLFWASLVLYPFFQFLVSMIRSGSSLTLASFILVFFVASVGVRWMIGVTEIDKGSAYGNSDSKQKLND
Description: Purified human AGPAT4 protein (0.1 μg) was incubated with library compounds at 25 μM (unless indicated) for 1 h at room temperature, followed by incubation with IA-rhodamine (1 μM) for 1 h. Sampling buffer was added and the samples were denatured by boiling at 90° C. The samples were resolved by SDS-PAG E and fluorescence signals were captured using ChemiDoc MP (Bio-Rad) before silver staining to assess protein loading. The band fluorescence intensity was quantified using the ImageJ software.

[2] = test system: HCC PDX model #1 and sorafenib-resistant HCC PDX model #2
Description: HCC PDX #1 were first expanded in NOD-SCID mice as described previously (21). Sorafenib-resistant HCC PDX #2 was established and expanded as described previously (29). Dissociated PDX tumors (5×10^5 cells in 100% Matrigel) were orthotopically injected into the left lobes of the livers of 6-week-old BA L B/c nude mice (n=6-10 per group). Drug administration was initiated three weeks after inoculation. The mice were then randomized for treatment with DMSO, sorafenib, 30% PET (30% PEG400/15% ethanol/5% Tween 80 in saline), or CL26 (1 mg/kg or 10 mg/kg, delivered intraperitoneally thrice per week). Seven weeks post-inoculation, tumor-bearing mice were sacrificed. The livers were harvested for histological and ex vivo limiting dilution analyses.

[3] = sorafenib orally plus CL26 intraperitoneally

O=C(CCl)NCc1ccc(-c2nc3ccccc3s2)o1 [CL26, N-[[5-(2-benzothiazolyl)-2-furanyl]methyl]-2-chloroacetamide]
IC50 [1]: 766 nM | body weight vs control group ([2]; PDX mice treated with CL26): did not exhibit significant differences in body weight | p-mTOR levels, multiplex immunohistochemistry ([2]; PDX tumors): reduction in p-mTOR levels | self-renewal ability, ex vivo limiting dilution analysis ([2]; combination with sorafenib): decreased self-renewal ability | survival rate ([2]; combination with sorafenib, HCC PDX model #2): highest survival rate | number of tumor nodules [2, 3]: significant effect in reducing | tumor size [2, 3]: significant effect in reducing | tumor weight [2, 3]: significant effect in reducing
